# Measured values published in patent US20020137929A1, “1 - (3-heterocyclylphenyl) isothiourea, -isourea, -guanidine and -amidine herbicidal agents” (Intellectual Property Department, BASF Aktiengesellschaft, priority 1998, published 2002).
# Key:
# ABUTH (Velvetleaf) = assay: Postemergence herbicidal evaluation; assay type: in vivo, Abutilon theophrasti; conditions: postemergence
# Protocol: (§1) In the tests, seedling plants are grown in jiffy flats for about two weeks. The test compounds are dispersed in 50/50 acetone/water mixtures containing 0.5% TWEEN®20, a polyoxyethylene sorbitan monolaurate surfactant of Atlas Chemical Industries, in sufficient quantities to provide the equivalent of about 0.0156 kg to 0.500 kg per hectare of active compound when applied to the plants through a spray nozzle operating at 40 psi for a predetermined time. After spraying, the plants are placed on greenhouse benches and are cared for in accordance with conventional greenhouse procedures. From four to five weeks after treatment, the seedling plants are examined and rated according to the rating system set forth below. Where more than one test is involved for a given compound, the data are averaged.
# (§2) Plant species employed in these evaluations are reported by header abbreviation, common name and scientific name.
# (§3) Results of herbicide evaluation are expressed on a rating scale (0-9). The scale is based upon a visual observation of plant stand, vigor, malformation, size, chlorosis and overall plant appearance as compared with a control.
# [1] = tested on: CHEAL (Lambsquarters, Common); assay: Postemergence herbicidal evaluation; assay type: in vivo, Chenopodium album; conditions: postemergence
# Outline: (§4)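 Visual 0-9 injury score (stand, vigor, malformation, size, chlorosis, appearance vs untreated) taken four to five weeks post-spray, averaged across repeat tests. Test plants about two weeks old; foliar spray of acetone/water (1:1) with 0.5% surfactant delivering ~0.0156-0.500 kg active/ha.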
# SETVI (Foxtail, Green) [2] = assay: Postemergence herbicidal evaluation; assay type: in vivo, Setaria viridis; conditions: postemergence
# Protocol: as §1, §2, §3
# [3] = tested on: GLXMAW (Soybean, Williams); assay: Postemergence herbicidal evaluation; assay type: in vivo, Glycine max, (L.) Merr. cv Williams; conditions: postemergence
# Outline: as §4
# ORYSAT (Rice, Tebonnet) = assay: Postemergence herbicidal evaluation; assay type: in vivo, Oryza sativa, (L.) Tebonnet; conditions: postemergence
# Outline: as §4
# [4] = tested on: TRZAWR (Wheat, Winter, cv Riband); assay: Postemergence herbicidal evaluation; assay type: in vivo, Triticum aestivum; conditions: postemergence
# Outline: as §4
# ZEAMX (Corn, Field) = assay: Postemergence herbicidal evaluation; assay type: in vivo, Zea mays; conditions: postemergence
# Outline: as §4
# AMBEL (Ragweed, Common) = assay: Preemergence herbicidal evaluation; assay type: in vivo, Ambrosia artemisifolia; conditions: rated 4-5 weeks after treatment
# Description: as §3
# (§5) The preemergence herbicidal activity of the test compounds of the present invention is exemplified by the following tests in which the seeds of a variety of monocotyledonous and dicotyledonous plants are separately mixed with potting soil and planted on top of approximately one inch of soil in separate pint cups. After planting, the cups are sprayed with the selected aqueous acetone solution containing test compound in sufficient quantity to provide the equivalent of about 0.0156 to 0.500 kg per hectare of test compound per cup. The treated cups are then placed on greenhouse benches, watered and cared for in accordance with conventional greenhouse procedures. From four to five weeks after treatment, the tests are terminated and each cup is examined and rated according to the rating system provided in Example 37.
# (§6) The compounds evaluated are reported by compound number given in Example 37.
# GALAP (Galium) = assay: Preemergence herbicidal evaluation; assay type: in vivo, Galium aparine; conditions: rated 4-5 weeks after treatment
# Description: as §3, §5, §6
# SETVI (Foxtail, Green) [5] = assay: Preemergence herbicidal evaluation; assay type: in vivo, Setaria viridis; conditions: rated 4-5 weeks after treatment
# Description: as §3, §5, §6
# CYPIR (Rice Flatsedge) = assay: Preemergence weed control under flooded paddy conditions; assay type: in vivo, Cyperus iria; conditions: rated 3-4 weeks after treatment
# Protocol: as §3
# Preemergence herbicidal activity under flooded paddy conditions is determined as follows: plant seeds or propagating organs are planted in the top 0.5 cm of silt loam soil in 32 oz. plastic containers with a diameter of 10.5 cm and no drainage holes. Water is added to these containers and maintained at 1.5 to 3 cm above the soil surface for the duration of the experiment. The test compounds are applied as aqueous/acetone mixtures 50/50 v/v pipetted directly into the flood water to give the equivalent of about 0.0313 to 0.500 kg/ha of active ingredient. The treated containers are placed on greenhouse benches and cared for in accordance with conventional greenhouse procedures. Three to four weeks after treatment, the test is terminated and each container is examined and herbicidal effect rated according to the rating system provided in Example 37. The compounds evaluated are reported by compound number given in Example 37.
# Plant species employed in this example are reported by header abbreviation, common name and scientific name.
compound,measurement,setting,value
"CCOC(=O)CN1C(=O)C(C(=O)OC(C)(C)C)SC1=Nc1cc(-n2c(=O)cc(C(F)(F)F)n(C)c2=O)c(F)cc1Cl (stereo not drawn) [Compound 167, 5-Carboxy-2-{{2-chloro-5-[3,6-dihydro-3-methyl-2,6-dioxo-4-(trifluoromethyl)-1(2H)-pyrimidinyl]-4-fluorophenyl}imino}-4-oxo-3-thiazolidineacetic acid, 5-tert-butyl ethyl ester]",Herbicidal rating ABUTH,ABUTH (Velvetleaf); rate 0.0156 kg/ha,9.0
same,Herbicidal rating ABUTH,ABUTH (Velvetleaf); rate 0.0313 kg/ha,9.0
same,Herbicidal rating ABUTH,ABUTH (Velvetleaf); rate 0.0625 kg/ha,9.0
same,Herbicidal rating ABUTH,ABUTH (Velvetleaf); rate 0.1250 kg/ha,9.0
same,Herbicidal rating CHEAL,[1]; rate 0.0156 kg/ha,4.0
same,Herbicidal rating CHEAL,[1]; rate 0.0313 kg/ha,7.0
same,Herbicidal rating CHEAL,[1]; rate 0.0625 kg/ha,9.0
same,Herbicidal rating CHEAL,[1]; rate 0.1250 kg/ha,9.0
same,Herbicidal rating SETVI,"SETVI (Foxtail, Green) [2]; rate 0.0156 kg/ha",2.0
same,Herbicidal rating SETVI,"SETVI (Foxtail, Green) [2]; rate 0.0313 kg/ha",4.0
same,Herbicidal rating SETVI,"SETVI (Foxtail, Green) [2]; rate 0.0625 kg/ha",9.0
same,Herbicidal rating SETVI,"SETVI (Foxtail, Green) [2]; rate 0.1250 kg/ha",9.0
same,Herbicidal rating GLXMAW,[3]; rate 0.0156 kg/ha,5.0
same,Herbicidal rating GLXMAW,[3]; rate 0.0313 kg/ha,6.0
same,Herbicidal rating GLXMAW,[3]; rate 0.0625 kg/ha,6.5
same,Herbicidal rating GLXMAW,[3]; rate 0.1250 kg/ha,6.5
same,Herbicidal rating ORYSAT,"ORYSAT (Rice, Tebonnet); rate 0.0156 kg/ha",3.0
same,Herbicidal rating ORYSAT,"ORYSAT (Rice, Tebonnet); rate 0.0313 kg/ha",3.5
same,Herbicidal rating ORYSAT,"ORYSAT (Rice, Tebonnet); rate 0.0625 kg/ha",3.5
same,Herbicidal rating ORYSAT,"ORYSAT (Rice, Tebonnet); rate 0.1250 kg/ha",4.0
same,Herbicidal rating TRZAWR,[4]; rate 0.0156 kg/ha,4.0
same,Herbicidal rating TRZAWR,[4]; rate 0.0313 kg/ha,4.0
same,Herbicidal rating TRZAWR,[4]; rate 0.0625 kg/ha,4.0
same,Herbicidal rating TRZAWR,[4]; rate 0.1250 kg/ha,4.5
same,Herbicidal rating ZEAMX,"ZEAMX (Corn, Field); rate 0.0156 kg/ha",4.5
same,Herbicidal rating ZEAMX,"ZEAMX (Corn, Field); rate 0.0313 kg/ha",5.5
same,Herbicidal rating ZEAMX,"ZEAMX (Corn, Field); rate 0.0625 kg/ha",5.5
same,Herbicidal rating ZEAMX,"ZEAMX (Corn, Field); rate 0.1250 kg/ha",5.5
same,Preemergence herbicidal rating AMBEL,"AMBEL (Ragweed, Common); 0.0156 kg/ha",1.0
same,Preemergence herbicidal rating AMBEL,"AMBEL (Ragweed, Common); 0.0313 kg/ha",0.0
same,Preemergence herbicidal rating AMBEL,"AMBEL (Ragweed, Common); 0.0625 kg/ha",7.0
same,Preemergence herbicidal rating AMBEL,"AMBEL (Ragweed, Common); 0.1250 kg/ha",6.0
same,Preemergence herbicidal rating AMBEL,"AMBEL (Ragweed, Common); 0.2500 kg/ha",7.0
same,Preemergence herbicidal rating AMBEL,"AMBEL (Ragweed, Common); 0.5000 kg/ha",8.0
same,Preemergence herbicidal rating GALAP,GALAP (Galium); 0.0156 kg/ha,1.0
same,Preemergence herbicidal rating GALAP,GALAP (Galium); 0.0313 kg/ha,5.0
same,Preemergence herbicidal rating GALAP,GALAP (Galium); 0.0625 kg/ha,7.0
same,Preemergence herbicidal rating GALAP,GALAP (Galium); 0.1250 kg/ha,9.0
same,Preemergence herbicidal rating GALAP,GALAP (Galium); 0.2500 kg/ha,6.0
same,Preemergence herbicidal rating GALAP,GALAP (Galium); 0.5000 kg/ha,7.0
same,Preemergence herbicidal rating SETVI,"SETVI (Foxtail, Green) [5]; 0.0156 kg/ha",5.0
same,Preemergence herbicidal rating SETVI,"SETVI (Foxtail, Green) [5]; 0.0313 kg/ha",7.0
same,Preemergence herbicidal rating SETVI,"SETVI (Foxtail, Green) [5]; 0.0625 kg/ha",9.0
same,Preemergence herbicidal rating SETVI,"SETVI (Foxtail, Green) [5]; 0.1250 kg/ha",9.0
same,Preemergence herbicidal rating SETVI,"SETVI (Foxtail, Green) [5]; 0.2500 kg/ha",9.0
same,Preemergence herbicidal rating SETVI,"SETVI (Foxtail, Green) [5]; 0.5000 kg/ha",9.0
same,"herbicidal effect rating, CYPIR",CYPIR (Rice Flatsedge); 0.0313 kg/ha,7.0
same,"herbicidal effect rating, CYPIR",CYPIR (Rice Flatsedge); 0.0625 kg/ha,9.0
same,"herbicidal effect rating, CYPIR",CYPIR (Rice Flatsedge); 0.1250 kg/ha,9.0
same,"herbicidal effect rating, CYPIR",CYPIR (Rice Flatsedge); 0.2500 kg/ha,9.0
"CC(C)COC(=O)CN1C(=O)CSC1=Nc1cc(-n2c(=O)cc(C(F)(F)F)n(C)c2=O)c(F)cc1Cl [Compound 121, Isobutyl 2-{{2-chloro-5-[3,6-dihydro-3-methyl-2,6-dioxo-4-(trifluoromethyl)-1(2H)-pyrimidinyl]-4-fluorophenyl}imino}-4-oxo-3-thiazolidineacetate]",Herbicidal rating ABUTH,ABUTH (Velvetleaf); rate 0.0156 kg/ha,9.0
same,Herbicidal rating ABUTH,ABUTH (Velvetleaf); rate 0.0313 kg/ha,9.0
same,Herbicidal rating ABUTH,ABUTH (Velvetleaf); rate 0.0625 kg/ha,9.0
same,Herbicidal rating CHEAL,[1]; rate 0.0156 kg/ha,4.0
same,Herbicidal rating CHEAL,[1]; rate 0.0313 kg/ha,7.0
same,Herbicidal rating CHEAL,[1]; rate 0.0625 kg/ha,9.0
same,Herbicidal rating SETVI,"SETVI (Foxtail, Green) [2]; rate 0.0156 kg/ha",8.0
same,Herbicidal rating SETVI,"SETVI (Foxtail, Green) [2]; rate 0.0313 kg/ha",8.0
same,Herbicidal rating SETVI,"SETVI (Foxtail, Green) [2]; rate 0.0625 kg/ha",9.0
same,Herbicidal rating GLXMAW,[3]; rate 0.0156 kg/ha,6.0
same,Herbicidal rating GLXMAW,[3]; rate 0.0313 kg/ha,8.0
same,Herbicidal rating GLXMAW,[3]; rate 0.0625 kg/ha,8.0
same,Herbicidal rating ORYSAT,"ORYSAT (Rice, Tebonnet); rate 0.0156 kg/ha",2.0
same,Herbicidal rating ORYSAT,"ORYSAT (Rice, Tebonnet); rate 0.0313 kg/ha",2.5
same,Herbicidal rating ORYSAT,"ORYSAT (Rice, Tebonnet); rate 0.0625 kg/ha",3.0
same,Herbicidal rating TRZAWR,[4]; rate 0.0156 kg/ha,3.0
same,Herbicidal rating TRZAWR,[4]; rate 0.0313 kg/ha,4.0
same,Herbicidal rating TRZAWR,[4]; rate 0.0625 kg/ha,5.0
same,Herbicidal rating ZEAMX,"ZEAMX (Corn, Field); rate 0.0156 kg/ha",5.0
same,Herbicidal rating ZEAMX,"ZEAMX (Corn, Field); rate 0.0313 kg/ha",5.0
same,Herbicidal rating ZEAMX,"ZEAMX (Corn, Field); rate 0.0625 kg/ha",6.0
same,Preemergence herbicidal rating AMBEL,"AMBEL (Ragweed, Common); rate 0.0156 kg/ha",0.0
same,Preemergence herbicidal rating AMBEL,"AMBEL (Ragweed, Common); rate 0.0313 kg/ha",2.0
same,Preemergence herbicidal rating AMBEL,"AMBEL (Ragweed, Common); rate 0.0625 kg/ha",3.0
same,Preemergence herbicidal rating AMBEL,"AMBEL (Ragweed, Common); rate 0.1250 kg/ha",4.0
same,Preemergence herbicidal rating AMBEL,"AMBEL (Ragweed, Common); rate 0.2500 kg/ha",8.0
same,Preemergence herbicidal rating GALAP,GALAP (Galium); rate 0.0156 kg/ha,0.0
same,Preemergence herbicidal rating GALAP,GALAP (Galium); rate 0.0313 kg/ha,0.0
same,Preemergence herbicidal rating GALAP,GALAP (Galium); rate 0.0625 kg/ha,0.0
same,Preemergence herbicidal rating GALAP,GALAP (Galium); rate 0.1250 kg/ha,5.0
same,Preemergence herbicidal rating GALAP,GALAP (Galium); rate 0.2500 kg/ha,9.0
same,Preemergence herbicidal rating SETVI,"SETVI (Foxtail, Green) [5]; rate 0.0156 kg/ha",0.0
same,Preemergence herbicidal rating SETVI,"SETVI (Foxtail, Green) [5]; rate 0.0313 kg/ha",3.0
same,Preemergence herbicidal rating SETVI,"SETVI (Foxtail, Green) [5]; rate 0.0625 kg/ha",7.0
same,Preemergence herbicidal rating SETVI,"SETVI (Foxtail, Green) [5]; rate 0.1250 kg/ha",9.0
same,Preemergence herbicidal rating SETVI,"SETVI (Foxtail, Green) [5]; rate 0.2500 kg/ha",9.0
same,"herbicidal effect rating, CYPIR",CYPIR (Rice Flatsedge); 0.0313 kg/ha,4.0
same,"herbicidal effect rating, CYPIR",CYPIR (Rice Flatsedge); 0.0625 kg/ha,4.0
same,"herbicidal effect rating, CYPIR",CYPIR (Rice Flatsedge); 0.1250 kg/ha,8.0
same,"herbicidal effect rating, CYPIR",CYPIR (Rice Flatsedge); 0.2500 kg/ha,8.0
